Assay results as given in US11484529B2, “Desmethylanethole trithione derivatives for the treatment of diseases linked to mitochondrial reactive oxygen species (ROS) production” (OP2 Drugs, priority 2017, dated 2022).
“Also recorded” adds a separate entry of the source.

Experiments:
[1] = system: isolated mitochondria from rat heart; test: Mitochondrial respiration / oxidative phosphorylation (oxygraph); format: biochemical
Method: Male Wistar rats (250-325 g; obtained from Janvier Labs, Le Genest-Saint-Isle, France) were killed by stunning and cervical dislocation, and the heart was quickly removed and washed in cold isolation medium containing 100 mM sucrose, 180 mM KCl, 50 mM Tris, 5 mM MgCl2, 10 mM EDTA, and 0.1% (w/v) defatted BSA (pH 7.2).
Isolation of heart mitochondria was performed in a cold chamber. Before homogenization, hearts (about 1.5 g) were minced with scissors and treated for 5 minutes in 5 mL of the same medium supplemented with protease (2 mg of bacterial proteinase type XXIV per mL of isolation buffer) with stirring. The tissue suspension was poured into a 50-mL glass Potter homogenizer, diluted with 20 mL of isolation buffer, then homogenized for 3 minutes using a motorized Teflon pestle. The homogenate was filtered through bolting cloth (Sefar Nitex) to remove debris, and centrifuged at 8,000 g for 10 minutes. The resulting pellet was rinsed with 5 mL of isolation buffer, resuspended in 25 mL of the same buffer, then subjected to low speed centrifugation (400 g) for 8 minutes. […] Protein concentration was determined by the Bradford method (Sigma, kit #B6916) using BSA as standard. […]
(§1) Oxygen consumption rates of heart mitochondria (0.1 mg/mL), incubated in the absence or presence of AOL at increasing doses (from 0 to 80 μM final concentration), were recorded polarographically under constant stirring at 25° C. using a high-resolution oximeter (Oxygraph-2K, Oroboros Instruments, Austria). […]
Isolation of heart mitochondria was performed in a cold chamber. […] Protein concentration was determined by the Bradford method (Sigma, kit # B6916) using BSA as standard. […]
as §1, with “AOX” for “AOL”, “100” for “80”

intrapulmonary arteries = test: Isometric contraction of intrapulmonary arteries induced by serotonin or endothelin
Method: Intrapulmonary arteries of the first order (IPA1) were divided into short tubular segments with an external diameter of 1.5-2 mm and used for isometric contraction measurement. Arterial rings were mounted in isolated organ bath systems, containing Krebs solution (containing 118.4 mM NaCl, 4.7 mM KCl, 1.2 mM MgSO4, 25 mM NaHCO3, 1.2 mM KH2PO4, 2.5 mM CaCl2) and 11.1 mM D-glucose, pH 7.4 adjusted with NaOH) at 37° C. and bubbled continuously with […]. An initial load of 0.8 to 1 g was applied to arterial rings. Tissues were allowed to equilibrate for 1 hour in Kreb's solution and washed out every 15 minutes. A high KCl solution (80 mM) was applied in order to obtain a reference contraction used to normalize subsequent contractile responses.
Contractile responses to different agonists were then tested by constructing a cumulative concentration-response curve (CCRC) to serotonin (5HT, 10^−4 to 10^−[…]) or endothelin (ET-1, 10^−7 to 10^−10 M). When indicated, AOL or AOX were preincubated during 30 minutes, and then CCRC to agonist was performed in the presence of the drug. High potassium solutions were obtained by substituting an equimolar amount of KCl for NaCl from Kreb's solution. Endothelial function was tested on each ring by examining the relaxation induced by 10 μM carbamylcholine on 0.3 μM Phe-induced preconstricted pulmonary arterial rings. Passive and active mechanical properties were assessed using transducer systems, coupled to IOX software (EMKA Technologies, Paris, France) in order to facilitate data acquisition and analysis.

Row | SMILES | effect on mitochondrial respiration / oxidative phosphorylation ([1]; AOL 5 to 80 μM, glutamate+malate, succinate(+rotenone) or all substrates, substrate, ADP and ATR states) | endothelin-induced contractions (intrapulmonary arteries; AOL preincubated 30 minutes) | serotonin-induced contractions (intrapulmonary arteries; AOL preincubated 30 minutes) | oxidation rate under substrate state and ATR state ([1]; AOX 20 to 100 μM, succinate (+ rotenone)) | concentrations with uncoupling effect on oxidative phosphorylation ([1]; succinate (+ rotenone)) | response of serotonin- and endothelin-induced contractions compared with AOL (intrapulmonary arteries; AOX at 10 μM) | serotonin-induced contractions (intrapulmonary arteries; higher concentrations of AOX (above 10 μM))
1 | COc1ccc(-c2cc(=S)ss2)cc1 [AOL, 5-(4-methoxyphenyl)-3H-1,2-dithiole-3-thione] | no statistical differences in mitochondrial respiration; also recorded: statistically no differences were observed | no effect on endothelin-induced contractions | could relax contractions induced with up to 5·10^−5 M of serotonin |  |  |  | 
2 | Oc1ccc(-c2cc(=S)ss2)cc1 [AOX, 5-(4-hydroxyphenyl)-3H-1,2-dithiole-3-thione] |  |  |  | increase for concentrations up to 50 μM followed by a decrease for concentrations over 50 μM | higher than 20 μM | same pattern of response | contractions induced with 10^−4 M of serotonin could be relaxed
